Reference: a compilation of properties of binary mixtures (doi:10.1039/c6ra15476j)

Assay: xn = mol fraction of the nth substance listed
Conditions: 100 kPa

CCCC[n+]1ccn(C)c1.F[P-](F)(F)(F)(F)F + CC(=O)c1ccccc1
x2 = 0
Conditions | viscosity [mPa·s]
293.15 K | 293
303.15 K | 162
323.15 K | 62
333.15 K | 42.3

CCOS(=O)(=O)[O-].CC[n+]1ccn(C)c1 + CC(=O)c1ccccc1
x2 = 0
Conditions | speed of sound [m/s] | viscosity [mPa·s]
293.15 K | 1695 | 98
303.15 K | 1670 | 60
323.15 K | 1623 | 27.9

CC[n+]1ccn(C)c1.F[B-](F)(F)F + CC(=O)c1ccccc1
x2 = 0
Conditions | speed of sound [m/s] | viscosity [mPa·s]
303.15 K | 1618 | 28.2
313.15 K | 1595 | 20
323.15 K | 1572 | 14.9
333.15 K | 1550 | 11.5

CC(=O)c1ccccc1 + CCCC[n+]1ccn(C)c1.F[P-](F)(F)(F)(F)F
viscosity [mPa·s]
Conditions | 293.15 K | 303.15 K | 313.15 K | 323.15 K | 333.15 K
x1 = 0.0504 | 176 | 89 | 62 | 41 | 27.6
x1 = 0.0913 | 129 | 68 | 45.8 | – | –
x1 = 0.1983 | 88 | 48.5 | 35 | 26.5 | 18.6
x1 = 0.2999 | 81 | – | 32.3 | 23.2 | –
x1 = 0.3908 | 73 | 40.9 | 28.3 | – | 14.2
x1 = 0.4973 | 60 | 32.4 | – | 15.2 | 10.2
x1 = 0.5999 | – | 22.9 | – | 11.6 | 9.3
x1 = 0.697 | 35.6 | 18.5 | 12.3 | – | 8.3
x1 = 0.7999 | 28.2 | 14.3 | 8 | – | 4.67
x1 = 0.9002 | 16.2 | 7.7 | 5.6 | 4.34 | –
x1 = 0.95 | 8.4 | 4.64 | 3.57 | – | 1.62
x1 = 1 | 1.91 | 1.65 | 1.37 | 1.17 | –

CC(=O)c1ccccc1 + CCOS(=O)(=O)[O-].CC[n+]1ccn(C)c1
Conditions | speed of sound, 293.15 K [m/s] | speed of sound, 303.15 K [m/s] | speed of sound, 313.15 K [m/s] | speed of sound, 323.15 K [m/s] | speed of sound, 333.15 K [m/s] | viscosity, 293.15 K [mPa·s] | viscosity, 303.15 K [mPa·s] | viscosity, 313.15 K [mPa·s] | viscosity, 323.15 K [mPa·s] | viscosity, 333.15 K [mPa·s]
x1 = 0.0505 | 1691 | 1663 | 1637 | 1611 | – | 68 | 44 | 29 | 20.6 | –
x1 = 0.0997 | 1684 | 1656 | 1628 | 1601 | – | 56 | 35 | 23.9 | 17.1 | –
x1 = 0.2 | 1669 | – | 1610 | 1581 | 1521 | 40 | – | 18 | 13.1 | 11.9
x1 = 0.3008 | 1652 | 1621 | 1591 | – | 1503 | 30.2 | 21.3 | 14.5 | – | 9.6
x1 = 0.4002 | 1634 | – | 1571 | 1540 | 1485 | 22.6 | – | 11.9 | 9.3 | 8.3
x1 = 0.5006 | 1615 | 1583 | 1550 | 1518 | – | 14.9 | 11.8 | 9.8 | 8 | 6.8
x1 = 0.5999 | 1596 | 1562 | 1529 | – | 1448 | 10.1 | 8.4 | 7.2 | – | 4.9
x1 = 0.6921 | 1577 | 1542 | – | 1473 | 1428 | 6.9 | 6.6 | – | 3.4 | 3.6
x1 = 0.7973 | – | – | 1481 | 1446 | 1404 | – | – | 4.6 | 2.19 | 1.86
x1 = 0.8999 | 1526 | 1489 | – | – | 1379 | 3.7 | 2.88 | – | – | 1.66
x1 = 0.9502 | 1511 | – | – | 1402 | 1365 | 3.04 | – | – | 1.68 | 1.46
x1 = 1 | 1497 | – | – | – | 1352 | 1.91 | – | – | – | 1.02

CC(=O)c1ccccc1 + CC[n+]1ccn(C)c1.F[B-](F)(F)F
Conditions | speed of sound, 293.15 K [m/s] | speed of sound, 303.15 K [m/s] | speed of sound, 313.15 K [m/s] | speed of sound, 323.15 K [m/s] | speed of sound, 333.15 K [m/s] | viscosity, 293.15 K [mPa·s] | viscosity, 303.15 K [mPa·s] | viscosity, 313.15 K [mPa·s] | viscosity, 323.15 K [mPa·s] | viscosity, 333.15 K [mPa·s]
x1 = 0.0416 | 1640 | 1608 | 1581 | 1555 | – | 32.1 | 21.2 | 15.4 | 11.6 | –
x1 = 0.094 | 1638 | – | 1572 | – | – | 25.5 | – | 12.3 | – | –
x1 = 0.195 | 1628 | 1591 | 1560 | 1530 | 1502 | 21.7 | 14.3 | 10.9 | 8.1 | 7.2
x1 = 0.2999 | – | 1581 | 1550 | 1519 | 1490 | – | 12.9 | 9.5 | 7.3 | 5.8
x1 = 0.4003 | – | 1571 | 1538 | – | – | – | 11 | 8.1 | – | –
x1 = 0.4989 | 1598 | – | 1527 | – | 1462 | 12.3 | – | 6 | – | 3.49
x1 = 0.5979 | 1583 | 1546 | 1511 | 1477 | 1442 | 8.7 | 6.5 | 5.2 | 4.14 | 3.39
x1 = 0.7005 | 1564 | 1528 | 1491 | 1457 | 1422 | 6.8 | 4.97 | 3.84 | 3.1 | 2.58
x1 = 0.8007 | 1543 | 1507 | 1472 | 1437 | 1400 | 4.74 | 3.61 | 3.09 | 2.36 | 2
x1 = 0.8918 | 1522 | 1485 | – | 1413 | – | 3.2 | 2.56 | – | 1.76 | –
x1 = 0.9498 | 1509 | 1471 | – | 1398 | – | 2.45 | 2.03 | – | 1.42 | –
x1 = 1 | 1497 | 1460 | 1423 | 1387 | – | 1.91 | 1.65 | 1.37 | 1.17 | –
